The record followed here is patent publication US9267949B2, “Alkylamino BODIPY dyes as selective fluorescent probes for proteins and mouse embryonic stem cells” (National University of Singapore, priority 2011, dated 2016).

A short description of the first data set: Quantum yield measurements. It counts as physicochemical. Particulars: referred to Rhodamine B in EtOH, excitation 510 nm, emission integrated 540-800 nm. On the procedure:
Quantum yields were calculated by measuring the integrated emission area of the fluorescent spectra, and referring them to the area measured for Rhodamine B in EtOH after excitation at 510 nm (ΦRho-B=0.70). Quantum yields for the BDM products were then calculated using equation below, where F represents the area of fluorescent emission, n is reflective index of the solvent, and Abs is absorbance at excitation wavelength selected for standards and samples. Emission was integrated from 540 nm to 800 nm.
`COC(=O)c1ccc(-c2ccc(/C=C/C3=[N+]4C(=C(CCN)c5cccn5[B-]4(F)F)C(C)=C3)cc2)cc1` [BDM-179]: the “φ (quantum yield)” value is reported as 0.26.
Same read-out and setting: the value for `COc1c(/C=C/C2=[N+]3C(=C(CCN)c4cccn4[B-]3(F)F)C(C)=C2)cc(C(C)(C)C)cc1C(C)(C)C` [BDM-325] was 0.47; that for `COc1cccc(/C=C/C2=[N+]3C(=C(CCN)c4cccn4[B-]3(F)F)C(C)=C2)c1Cl` [BDM-281] was 0.28.
Same read-out and setting: the value for `CC1=CC(/C=C/c2ccc(OC(F)(F)F)cc2)=[N+]2C1=C(CCN)c1cccn1[B-]2(F)F` [BDM-68] was 0.63; that for `Cc1cccc(/C=C/c2cc(C)c3n2[B-](F)(F)[N+]2=CC=CC2=C3CCN)c1` [BDM-9] was 0.33; that for `CCOc1ccc(/C=C/C2=[N+]3C(=C(CCN)c4cccn4[B-]3(F)F)C(C)=C2)c(OCC)c1` [BDM-316] was 0.46.
The same measure, in the same setting: the value for `Cc1cc(/C=C/c2ccco2)n2c1C(CCN)=C1C=CC=[N+]1[B-]2(F)F` [BDM-22] was 0.14; that for `COc1cc(OC)c(OC)cc1/C=C/C1=[N+]2C(=C(CCN)c3cccn3[B-]2(F)F)C(C)=C1` [BDM-144] was 0.05; that for `CC1=CC(/C=C/c2ccccc2Oc2ccc(F)cc2)=[N+]2C1=C(CCN)c1cccn1[B-]2(F)F` [BDM-341] was 0.37.
As for `Cc1cc(/C=C/c2ccc(N(c3ccccc3)c3ccccc3)cc2)n2c1C(CCN)=C1C=CC=[N+]1[B-]2(F)F` [BDM-14], the “φ (quantum yield)” value was found to be 0.02.
Same read-out and setting: the value for `CC1=CC(/C=C/c2cccc(Oc3ccccc3)c2)=[N+]2C1=C(CCN)c1cccn1[B-]2(F)F` [BDM-20] was 0.47.
Turning to `COc1ccc(/C=C/C2=[N+]3C(=C(CCN)c4cccn4[B-]3(F)F)C(C)=C2)c(Cl)c1OC` [BDM-372], the “φ (quantum yield)” value is on record as 0.55.
Same read-out and setting: the value for `CC1=CC(/C=C/c2ccc(Oc3ccc(F)cc3)cc2)=[N+]2C1=C(CCN)c1cccn1[B-]2(F)F` [BDM-322] was 0.15; that for `CC1=CC(/C=C/c2c(C)nn(C)c2C)=[N+]2C1=C(CCN)c1cccn1[B-]2(F)F` [BDM-430] was 0.99.
For the molecule `CC1=CC(/C=C/c2ccc(-c3cncnc3)cc2)=[N+]2C1=C(CCN)c1cccn1[B-]2(F)F` [BDM-199], the “φ (quantum yield)” value is reported as 0.18.
Still for that read-out and setting: the value for `COc1ccc(F)cc1/C=C/C1=[N+]2C(=C(CCN)c3cccn3[B-]2(F)F)C(C)=C1` [BDM-239] was 0.28.

Another data set in a line: Spectroscopic properties of the BDM library (absorbance and emission maxima). It is filed as physicochemical.
Conditions: not given
Regarding `COC(=O)c1ccc(-c2ccc(/C=C/C3=[N+]4C(=C(CCN)c5cccn5[B-]4(F)F)C(C)=C3)cc2)cc1` [BDM-179], the “λmax (ABS)” value was found to be 566 nm and the “λmax (EM)” value was determined as 581 nm.
For `COc1c(/C=C/C2=[N+]3C(=C(CCN)c4cccn4[B-]3(F)F)C(C)=C2)cc(C(C)(C)C)cc1C(C)(C)C` [BDM-325], the “λmax (ABS)” value is on record as 557 nm and the “λmax (EM)” value was 573 nm.
The like results for `COc1cccc(/C=C/C2=[N+]3C(=C(CCN)c4cccn4[B-]3(F)F)C(C)=C2)c1Cl` [BDM-281] were, in that order, 554 nm and 567 nm.
In the case of `CC1=CC(/C=C/c2ccc(OC(F)(F)F)cc2)=[N+]2C1=C(CCN)c1cccn1[B-]2(F)F` [BDM-68], the “λmax (ABS)” value is 551 nm and the “λmax (EM)” value is reported as 561 nm.
For `Cc1cccc(/C=C/c2cc(C)c3n2[B-](F)(F)[N+]2=CC=CC2=C3CCN)c1` [BDM-9], the “λmax (ABS)” value is given as 554 nm and the “λmax (EM)” value was 567 nm.
The like results for `CCOc1ccc(/C=C/C2=[N+]3C(=C(CCN)c4cccn4[B-]3(F)F)C(C)=C2)c(OCC)c1` [BDM-316] were, in that order, 572 nm and 610 nm.
The like results for `Cc1cc(/C=C/c2ccco2)n2c1C(CCN)=C1C=CC=[N+]1[B-]2(F)F` [BDM-22] were, in that order, 567 nm and 584 nm.
Turning to `COc1cc(OC)c(OC)cc1/C=C/C1=[N+]2C(=C(CCN)c3cccn3[B-]2(F)F)C(C)=C1` [BDM-144], the “λmax (ABS)” value is 578 nm and the “λmax (EM)” value came out at 612 nm.
For `CC1=CC(/C=C/c2ccccc2Oc2ccc(F)cc2)=[N+]2C1=C(CCN)c1cccn1[B-]2(F)F` [BDM-341] the same measures were 556 nm and 570 nm.
As to `Cc1cc(/C=C/c2ccc(N(c3ccccc3)c3ccccc3)cc2)n2c1C(CCN)=C1C=CC=[N+]1[B-]2(F)F` [BDM-14], the “λmax (ABS)” value is listed as 593 nm and the “λmax (EM)” value stood at 624 nm.
For `CC1=CC(/C=C/c2cccc(Oc3ccccc3)c2)=[N+]2C1=C(CCN)c1cccn1[B-]2(F)F` [BDM-20] the same measures were 554 nm and 564 nm.
The like results for `COc1ccc(/C=C/C2=[N+]3C(=C(CCN)c4cccn4[B-]3(F)F)C(C)=C2)c(Cl)c1OC` [BDM-372] were, in that order, 561 nm and 578 nm.
The like results for `CC1=CC(/C=C/c2ccc(Oc3ccc(F)cc3)cc2)=[N+]2C1=C(CCN)c1cccn1[B-]2(F)F` [BDM-322] were, in that order, 559 nm and 577 nm.
In the case of `CC1=CC(/C=C/c2c(C)nn(C)c2C)=[N+]2C1=C(CCN)c1cccn1[B-]2(F)F` [BDM-430], the “λmax (ABS)” value is 565 nm and the “λmax (EM)” value came out at 592 nm.
The like results for `CC1=CC(/C=C/c2ccc(-c3cncnc3)cc2)=[N+]2C1=C(CCN)c1cccn1[B-]2(F)F` [BDM-199] were, in that order, 562 nm and 574 nm.
Consider `COc1ccc(F)cc1/C=C/C1=[N+]2C(=C(CCN)c3cccn3[B-]2(F)F)C(C)=C1` [BDM-239], for which the “λmax (ABS)” value is recorded as 559 nm and the “λmax (EM)” value was found to be 572 nm.
